Patent US7790762B2, “Compounds and methods for thiol-containing compound efflux and cancer treatment” (National Jewish Health, priority 2002, dated 2010)
Where two headings read alike, the source gives them in different places. Marks after values point to notes of the source that are not given here.

Legend:
[1] = test system: A549 cells; assay: Cytotoxicity as LDH release in A549 cells; format: cell-based, human
Method: (§1) Cell lines and culture conditions. Human lung epithelial cancer (A549), human leukemia HL-60 and human prostate (PC-3) tumor cells were purchased from ATCC (Manassas, Va.). A549 and PC-3 cells were grown in Ham's F12 medium (F12) and Kaighn's modification of Ham's F12 medium (F12K) with 2 mM L-glutamine (ATCC), respectively, supplemented with 10% fetal bovine serum (FBS) and 5% pen/strep (10,000 unit, Cellgro). HL-60 cells were grown in Iscove's modified Dulbecco's medium with 4 mM L-glutamine (ATCC) supplemented with 20% FBS and 5% pen/strep. Cell were grown in T-75 flask at 37° C. and 5% CO2 air atmosphere and in 24-well plates for GSH levels and LDH release measurements.
(§2) Assessment of cytotoxicity. In one exemplary method, membrane integrity of A549, HL-60 and PC-3 cells was used as an index of drug-induced cytotoxicity, and was assessed by monitoring the release of cytosolic lactate dehydrogenase (LDH). LDH activity was measured in the culture medium and cell lysates (50 mM HEPES, Triton X-100 0.5%, pH 7) using a plate reader format as previously described (41). Briefly, 5 μl of cell culture supernatant and lysates were incubated with 0.24 mM NADH in a Tris/NaCl pH 7.2 buffer in 96-well plates for 5 min at 25° C. The reaction was started by the addition of 9.8 mM pyruvate and the consumption of NADH followed at 340 nm for 5 min at 30° C. Percent LDH release was calculated by the following: (supernatant LDH/supernatant LDH+lysate LDH)×100.

[2] = test system: A549 cells; assay: Extracellular GSH in culture supernatants of A549 cells (HPLC-FD, mBBr); format: cell-based, human; details: 25 μM, 2 hours of treatment (FIG. 19D)
Method: Extracellular levels of GSH. Extracellular GSH in the culture media supernatants of A549, HL-60 and PC-3 cells were measured by an HPLC-FD method of GSH analysis after derivatization with monobromobimane (mBBr). […] The mixture was incubated in dark at room temperature for 30 min, and the reaction was stopped by addition of 10 μl of 70% perchloric acid. The samples were centrifuged at 16,000 g for 10 min and 0.18 ml of supernatant placed in vials for HPLC analysis. The HPLC column used was Synergi 4u Hydro-RP 80A (C18) (150×4.6 mm) from Phenomenex (Torrance, Calif.) and the mobile phase a mixture of 1% acetic acid in H2O (pH adjusted to 4.25 using NH4OH) with 7% acetonitrile. The flow rate was 1 ml·min^−1 and the injection volume 1 μl. The detector excitation and emission wavelengths were […], respectively. The retention time for the GSH derivative was 9.5 min.

[3] = test system: PC-3 cells; assay: Intracellular GSH levels by HPLC-EC in PC-3 cells; format: cell-based, human; details: for activity at 25 µM: Homo sapiens, read-out: Int. GSH % con.
Method: as §1
(§3) Intracellular levels of GSH. Intracellular GSH levels can be determined by HPLC-EC. Cultured cells from 24-well plates were washed once with 1 ml of PBS and then re-suspended in 0.5 ml of distilled water with 40 μM of digitonin (2 mM stock solution in DMSO) for 30 min at room temperature. Then, 50 μl of 10% meta-phosphoric acid were added (1% final concentration), the samples were sonicated for 2 min, centrifuged at 20,000 g for 10 min, and 0.2 ml of supernatant placed in vials for HPLC analysis. […] The flow rate was […]. The retention time for GSH in these conditions was 7.5 min. The HPLC instrument was from ESA, Inc. (Chelmsford, Mass.), equipped with an autosampler (model 540) and a Coul array detector (model 5600A). The potential applied was +0.75 V vs. H/Pd electrode, and the injection volume 5 μl.

[4] = test system: PC-3 cells; assay: Cytotoxicity as LDH release in PC-3 cells; format: cell-based, human
Method: as §1, §2

[5] = test system: A549 cells; assay: Intracellular GSH levels by HPLC-EC in A549 cells; format: cell-based, human; details: for activity at 25 µM: Homo sapiens
Method: as §1, §3

[6] = test system: HL-60 cells; assay: Cytotoxicity as LDH release in HL-60 cells; format: cell-based, human
Method: as §1, §2

[7] = test system: HL-60 cells; assay: Intracellular GSH levels by HPLC-EC in HL-60 cells; format: cell-based, human; details: for activity at 25 µM: HL-60, 25 μM
Method: as §1, §3

[8] = test system: epithelial cells; assay: Extracellular GSH transport, Transwell Studies (Table 3); format: cell-based
[9] = test system: epithelial cells; assay: Effects of compounds on extracellular GSH transport (Table 3); format: cell-based
[10] = test system: HL-60 cells; assay: Cellular superoxide by flow cytometry with hydroethidine in HL-60 cells; format: cell-based, human
Method: Flow cytometry. In one exemplary method, cellular superoxide (O2^−) was measured by flow cytometry analysis using hydroethidine (HE) (30). Untreated and treated HL-60 cells (approximately 10^6) were exposed to HE (1 μM from 1 mM stock solutions in DMSO) for 30 min, then were centrifuged at 3,500 g for 15 min, and washed once with 1 ml ice-cold PBS. Cells were re-suspended in 0.5 ml ice-cold PBS, and HE oxidation product, i.e., ethidium bromide (EB), analyzed within 30 min using the red channel (PE) of a FACSCalibur flow cytometer from Becton Dickinson Biosciences (San Jose, Calif.). The total number of cell counts was 25,000.

[11] = Epithelial lining fluid (ELF) GSH concentration in dexamethasone treated mice; format: in vivo, Wild type (C57/B6) mice; details: 1 mg/kg intraperitoneal daily for two days, BALF at 48 hours; mean±standard error
Method: FIG. 17 Dexamethasone-Induced Changes in Epithelial Lining Fluid (ELF) Glutathione (GSH) Concentrations. Wild type (C57/B6) mice were given a 1 mg/kg dexamethasone (DEX) injection (intraperitoneal) daily for two days. Bronchoalveolar lavage fluid (BALF) was obtained at 48 hours after the first initial dose and GSH concentrations determined. BALF was obtained through a tracheal canula with a single 2.0 mL aliquots of phosphate-buffered saline (pH 7.4) that was instilled into the lung and withdrawn only once. The BALF was centrifuged at 4000×g to remove cells (i.e., alveolar macrophages). The cell-free BALF was acidified with metaphosphoric acid to a final concentration of 1% metaphosphoric acid and centrifuged at 20,000×g to pellet the precipitated proteins. GSH concentrations were determined by HPLC coupled with electrochemical detection. ELF concentrations of GSH were calculated from BALF concentrations multiplied by a dilution factor derived from the difference in serum and BALF urea concentrations. […] Data are shown as the mean±standard error for n≧4 with significance attained at p≦0.05.
Serum and BALF Urea Concentrations. […] ELF concentrations are then calculated by multiplying the BALF concentrations by the dilution factor. Urea concentrations in the samples are determined using a commercially available reagent (Sigma Diagnostics 66-20; St. Louis, Mo.).

[12] = test system: P-gp; details: single dose; renal basement membrane, liver and intestine; cited from earlier work
[13] = Homo sapiens, A549, 75 μM, 48 hours treatment, read-out: LDH rel. % con.
[14] = PC-3, 25 μM, 24 hours treatment
[15] = A549, 25 μM, 2 h, read-out: Intracellular GSH levels, % compared to control
[16] = A549, 25 μM, 4 h, read-out: Intracellular GSH levels, % compared to control
[17] = A549, 25 μM, 24 hours treatment, read-out: Int. GSH % con.
[18] = Homo sapiens, HL-60, 50 μM, 48 hours treatment, read-out: LDH rel. % con.
[19] = Homo sapiens, 24 hours treatment, read-out: Int. GSH % con.
[20] = Homo sapiens, PC-3, 50 μM, 48 hours treatment, read-out: LDH rel. % con.

O=C(/C=C/c1ccccc1)c1ccccc1O [2′-HC, 2′-hydroxychalcone]
LDH release, % of control at 75 µM [1, 13]: 515%
extracellular GSH levels [2]: increased levels of GSH in the supernatants
activity at 25 µM [3, 14]: 93%
LDH release, % of control at 25 µM ([4]; Homo sapiens, PC-3, 25 μM, 48 hours treatment, read-out: LDH rel. % con.): 227%
activity at 25 µM [5, 15]: < 5%
activity at 25 µM [5, 16]: < 5%
activity at 25 µM [5, 17]: < 5%
LDH release, % of control at 50 µM [6, 18]: 320%
activity at 25 µM [7, 19]: < 5%

COc1ccc(-c2coc3cc(O)cc(O)c3c2=O)cc1 [Biochanin A]
LDH rel. % con. ([1]; A549, 75 μM, 48 hours treatment): 230 % con.
% Increase Over Control (extracellular GSH) ([8]; 50 μM): 174 ^a %
Int. GSH % con. [3, 14]: 81 % con.
% Increase Over Control (extracellular GSH) ([9]; 50 μM): 133 ^c %
LDH rel. % con. ([4]; PC-3, 50 μM, 48 hours treatment): 127 % con.
Intracellular GSH levels, % compared to control ([5]; A549, 25 μM, 4 h): 36.8 ± 0.9%
Int. GSH % con. ([5]; A549, 25 μM, 24 hours treatment): <5 % con.
LDH rel. % con. ([6]; HL-60, 50 μM, 48 hours treatment): 133 % con.
Int. GSH % con. ([7]; HL-60, 75 μM, 24 hours treatment): 20 % con.

O=C(/C=C/c1ccccc1)c1ccccc1 [Chalcone]
LDH release, % of control at 75 µM [1, 13]: 150%
extracellular GSH levels [2]: increased levels of GSH in the supernatants
activity at 25 µM [3, 14]: 119%
LDH release, % of control at 50 µM [4, 20]: 229%
activity at 25 µM [5, 15]: 48.5 ± 2.1%
activity at 25 µM [5, 17]: < 5%
LDH release, % of control at 50 µM [6, 18]: 236%
activity at 25 µM [7, 19]: 100%

O=c1cc(-c2ccccc2)oc2cc(O)cc(O)c12 [Chrysin, 5,7 dihydroxyflavone]
effect on the toxicity of etoposide ([1]; A549 cells, 48 hours, etoposide (10 µM)): failed to potentiate etoposide's toxicity
toxicity ([1]; A549 cells, after 48 hours of treatment): relatively low toxicity
LDH release, % of control at 75 µM [1, 13]: 225%
activity at 25 µM [3, 14]: 51%
intracellular GSH, combination with curcumin ([3]; PC-3 cells (data not shown)): resulted in GSH depletion
depletion of intracellular GSH ([3]; PC-3 cells, 25 μM, 24 hours): 50%
LDH release, % of control at 50 µM [4, 20]: 132%
effect on curcumin-induced toxicity, LDH release ([4]; PC-3 cells, 48 hours (FIG. 20C)): potentiated
effect on the toxicities of rotenone (20 μM), 2-ME (50 μM) and etoposide (40 μM) ([4]; PC-3 cells, 48 hours, compound 10-20 μM): potentiated
effect on intracellular GSH (words) ([5]; A549 cells): very potent inducer of intracellular GSH depletion
depletion of intracellular GSH ([5]; A549 cells, 25 μM, 2 hours of treatment): 50%
effect on intracellular GSH (words) ([5]; A549 cells, listed as chrysin): one active flavone-like structure for inducing GSH depletion
activity at 25 µM [5, 15]: 47.2 ± 4%
activity at 25 µM [5, 16]: 5.2 ± 0.5%
activity at 25 µM [5, 17]: < 5%
toxicity ([6]; HL-60 cells, 25 μM (FIG. 20A)): not toxic
effect on the toxicity of curcumin (25 μM), LDH release ([6]; HL-60 cells, 48 hours, compound 25 μM (FIG. 20A)): potentiated the toxicity of curcumin
LDH release, % of control at 50 µM [6, 18]: 195%
O2^− levels on adding compound to curcumin treatment ([10]; HL-60 cells (FIG. 21B)): no increase of O2^− levels was observed, but rather a decrease after 4 hours
O2^− levels ([10]; HL-60 cells, 25 μM (FIG. 21B)): little change in O2^− levels
effect on intracellular GSH (words) ([7]; HL-60 cells): one active flavone-like structure for inducing GSH depletion
intracellular GSH levels in presence of curcumin ([7]; HL-60 cells (FIG. 20B)): induced GSH depletion in presence of curcumin
depletion of intracellular GSH ([7]; HL-60 cells, 50 μM, 24 hours): 50%
activity at 50 µM ([7]; Homo sapiens, HL-60, 50 μM, 24 hours treatment, read-out: Int. GSH % con.): 40%

C[C@@H]1C[C@H]2[C@@H]3CCC4=CC(=O)C=C[C@]4(C)[C@@]3(F)[C@@H](O)C[C@]2(C)[C@@]1(O)C(=O)CO [Dexamethasone, 9-fluoro-11 b,17,21-trihydroxy-16a-methylpregna-1,4-diene-3,20-dione, reference compound]
ELF concentrations of GSH [11]: 75.3 ± 12.0 µM
activation at 50 µM ([9]; Epithelial cell, 50 μM, read-out: % Increase Over Control (extracellular GSH)): 178%

COc1ccc2c(c1)c(CC(=O)O)c(C)n2C(=O)c1ccc(Cl)cc1 [Indomethacin, 1-(4-chlorobenzoyl)-5-methoxy-2-methyl-1H-indole-3-acetic acid, reference compound]
LDH release, % of control at 50 µM ([1]; Homo sapiens, A549, 50 μM, 48 hours treatment, read-out: LDH rel. % con.): 251%
% Increase Over Control (extracellular GSH) ([8]; 100 μM): 136 ^a %
activity at 25 µM [3, 14]: 75%
activation at 100 µM ([9]; Epithelial cell, 100 μM, read-out: % Increase Over Control (extracellular GSH)): 235%
LDH release, % of control at 50 µM [4, 20]: 122%
activity at 25 µM [5, 15]: 71.4 ± 2.8%
activity at 25 µM [5, 16]: 7.8 ± 1.2%
activity at 25 µM [5, 17]: < 5%
LDH release, % of control at 25 µM ([6]; Homo sapiens, HL-60, 25 μM, 48 hours treatment, read-out: LDH rel. % con.): 126%
activity at 25 µM [7, 19]: 49%

N.N.[Cl][Pt][Cl] [cisplatin, cis-dichlorodiammne platinum (II)]
induction of P-gp [12]: 200-300 ×
